The results in this text go back to PubChem BioAssay AID1996.

Converted amounts (≈) assume the structure as drawn.

The conditions of the data set: buffer; pH 7.4; 200.0 µM.
One may read the kinetic solubility as solubility judged after dilution from a stock solution rather than from solid. On to `O=C(O)CNc1nc(-c2ccccc2)nc2c1oc1ccccc12`, for which the kinetic solubility is more than 47.9 µg/mL.
`O=C(CSCc1ccc(Br)cc1)NCc1ccccn1` returned a solubility (kinetic) of more than 52.7 µg/mL.
`N/C(CCS(=O)(=O)c1ccc(Cl)cc1)=N\OC(=O)c1ccc(Cl)cc1` yielded a kinetic solubility of 1.2 µg/mL (≈ 2.99 µM).
As for `CN1CCN(S(=O)(=O)Cc2ccc(Cl)cc2)CC1`, the figure is 33.8 µg/mL (≈ 117 µM); as for `Cc1c(C)n(CC(O)CN(CCO)CCO)c2ccccc12.Cl` (centres undefined), more than 51.4 µg/mL; as for `Cc1cc(=O)oc2cc(OCC(=O)OC(C)C(=O)Nc3ccc(S(N)(=O)=O)cc3)ccc12` (centres undefined), more than 69.1 µg/mL.
As for `Cc1cccc(C(=O)OCC(=O)c2csc(N3CCCCC3)n2)c1[N+](=O)[O-]`, the figure is 2.8 µg/mL (≈ 7.19 µM).
As for `Cc1ccc(C(=O)CNc2cc(C)ccc2C)cc1`, the figure is less than 0.5 µg/mL; as for `O=C(NCc1ccccn1)Nc1ccc(Cl)cc1Cl`, 9.2 µg/mL (≈ 31.1 µM).
In turn, `CS(=O)(=O)Nc1ccc(C(=O)Nc2ccccc2-c2ccccc2)cc1` displayed a solubility (kinetic) of 42.4 µg/mL (≈ 116 µM).
As for `O=C(CCNC(=O)c1ccc(Cl)cc1)NCc1ccco1`, the figure is more than 46 µg/mL; as for `O=C(N[C@H]1CC1c1ccccc1)c1ccc([N+](=O)[O-])cc1` (some centres undefined), 1.6 µg/mL (≈ 5.67 µM).
`COc1ccc(Nc2nc(N)c([N+](=O)[O-])c(N3CCCC3)n2)cc1` came in with a solubility (kinetic) of 26.5 µg/mL (≈ 80.2 µM).
As for `CC1CCc2c(sc(NC(=O)/C=C/c3cccs3)c2C(=O)O)C1` (centres undefined), the figure is more than 52.1 µg/mL.
As for `O=C1c2ccsc2SCCN1Cc1cccc(F)c1`, the figure is 42.6 µg/mL (≈ 145 µM).
As for `O=C(Nc1nc2ccsc2c(=O)s1)C1CCC1`, the figure is 8.1 µg/mL (≈ 30.4 µM); as for `Br.Fc1ccccc1CNCC1CCCO1` (centres undefined), 43.1 µg/mL; as for `CC(Oc1ccc(Cl)cc1)C(=O)N1CCCc2ccccc21` (centres undefined), 2.1 µg/mL (≈ 6.65 µM).
Turning to `Nc1ccccc1OCCOc1ccccc1N`, the kinetic solubility is more than 36.6 µg/mL.
As for `CC(C)NC(=O)c1cc(-c2ccc3c(c2)OCO3)on1`, the figure is 17.9 µg/mL (≈ 65.3 µM); as for `CC(C)(/C=N/O)N(O)C=C1C=CC(=O)C=C1`, more than 33.3 µg/mL; as for `Cc1ccc(O)c(CNc2nc3ccccc3n2C(C)C)c1`, 0.6 µg/mL (≈ 2.03 µM).
As for `CCC(C)Nc1nc(N)c([N+](=O)[O-])c(NCc2ccccc2)n1` (centres undefined), the figure is 3.6 µg/mL (≈ 11.4 µM); as for `CCN(Cc1cc2cc(C)ccc2[nH]c1=O)C(=O)c1cccc([N+](=O)[O-])c1`, 11.5 µg/mL (≈ 31.5 µM).
As for `O=C(COC(=O)CNC(=O)c1ccccc1F)Nc1ccc(Cl)cn1`, the figure is 22.2 µg/mL (≈ 60.7 µM); as for `COc1ccc(CNC(=O)c2nccnc2CO)cc1`, more than 41 µg/mL.
For `Fc1ccc(NC(=S)Nc2cccnc2)cc1Cl`, the solubility (kinetic) is more than 42.3 µg/mL.
As for `Cc1cccc(NC(=O)CCc2ccccc2)c1`, the figure is 35 µg/mL (≈ 146 µM); as for `Cc1nc(N2CCCCC2)c(C#N)c(C)c1[N+](=O)[O-]`, 3.8 µg/mL (≈ 14.6 µM); as for `COCCn1c(-c2ccc(F)cc2)nc2cccnc21`, 36.1 µg/mL (≈ 133 µM).
As for `COC(=O)c1cc(NC(=O)c2cccnc2)ccc1N1CCOCC1`, the figure is more than 51.2 µg/mL; as for `CCn1c(=O)c(C(=O)Nc2ccc(C)cc2C)c(O)c2ccccc21`, less than 0.4 µg/mL.
With `CCCCCSc1ncccc1C(=O)O`, the kinetic solubility was more than 33.8 µg/mL.
`CC(C)Oc1ccc(C(=O)NCCCNC(=O)c2ccccn2)cc1` had a kinetic solubility of 48.6 µg/mL (≈ 142 µM).
As for `CC12CCC(C/C1=N/O)C2(C)CBr` (centres undefined), the figure is more than 36.9 µg/mL; as for `CCOC(=O)N1CCN(C(=O)Nc2cccc3ccccc23)CC1`, more than 49.1 µg/mL.
The compound `O=C(O)CCc1ccc(-c2ccccc2)n1-c1ccc(C(=O)O)cc1` registered a solubility (kinetic) of 47 µg/mL (≈ 140 µM).
As for `Cc1cc(=O)oc2cc(OCC(=O)N3c4ccccc4NC(=O)C3(C)C)ccc12`, the kinetic solubility turned out to be 17.3 µg/mL (≈ 44.1 µM).
As for `COc1ccccc1OC(C)C(=O)Nc1ccc2c(c1)OCCO2` (centres undefined), the figure is more than 49.4 µg/mL; as for `Cc1cc(NC(=O)C2CC(=O)N(c3ccccc3Cl)C2)no1` (centres undefined), more than 48 µg/mL; as for `Oc1ccc(Br)cc1CNc1cnc2ccccc2c1`, 1 µg/mL (≈ 3.04 µM).
As for `Cc1cc(C)cc(OCC(=O)O/N=C(\N)Cc2ccc([N+](=O)[O-])cc2)c1`, the figure is 20.4 µg/mL (≈ 57.1 µM); as for `Br.C(CCCN1CCCCC1)CCN1CCCCC1`, 61.8 µg/mL.
As for `CCN(CC)C(=O)CSc1ncccc1-c1nc2ccccc2[nH]1`, the figure is 17.6 µg/mL (≈ 51.7 µM); as for `S=C(NCc1ccccc1)Nc1ccc2ccccc2c1`, 0.9 µg/mL (≈ 3.08 µM); as for `O=C(NCCC(=O)N1CCc2ccccc21)c1ccccc1Cl`, 32.1 µg/mL (≈ 97.6 µM).
In turn, `COCCN1Cc2cccc(C(=O)NCCc3ccccc3)c2C1=O` came in with a solubility (kinetic) of 41.5 µg/mL (≈ 123 µM).
As for `COc1cc(CNC(=O)C2CC2)ccc1OCc1ccccc1`, the figure is 8.4 µg/mL (≈ 27 µM).
As for `Cc1ccc(S(=O)(=O)c2ccc([N+](=O)[O-])cn2)cc1`, the figure is 21 µg/mL (≈ 75.5 µM); as for `O=C(O)CCC(=O)Nc1cccc(-c2nc3ccccc3o2)c1`, more than 46.5 µg/mL.
As for `CN(C(=O)c1ccc(NC(=O)c2ccco2)cc1)c1ccccc1`, the figure is 2.9 µg/mL (≈ 9.05 µM); as for `COC(=O)c1ccc(CN=C(NS(=O)(=O)c2ccccc2)c2ccccc2)cc1`, more than 61.3 µg/mL; as for `Cc1cccc(C)c1NC(=S)NCc1ccncc1`, more than 40.7 µg/mL.
`Cc1cc(C)c(N=C2C(=O)Nc3ccccc32)c(C)c1` registered a solubility (kinetic) of more than 39.6 µg/mL.
As for `CNc1nc2c(c(=O)n(C)c(=O)n2C)n1CCCc1ccccc1`, the figure is more than 49.1 µg/mL; as for `NC(=O)CSc1nccn1Cc1ccc2c(c1)OCO2`, more than 43.7 µg/mL; as for `COc1ccccc1NC(=O)C1CCN(S(C)(=O)=O)CC1`, more than 46.9 µg/mL.
Consider `Cc1ccc(NS(=O)(=O)c2ccc(C(=O)NC3CCN(Cc4ccccc4)CC3)cc2)cc1.Cl`, for which the kinetic solubility was 6.4 µg/mL.
With `Cc1cccc(OC(C)C(=O)OCC(=O)N2CCN(c3ccccc3)CC2)c1` (centres undefined), the kinetic solubility amounted to 43.4 µg/mL (≈ 113 µM).
As for `CN(c1ccccc1)S(=O)(=O)c1cccc(NC(=O)C2CCCO2)c1` (centres undefined), the figure is more than 54.1 µg/mL; as for `CN1c2ccc(Cl)cc2C(=O)NC1c1ccc([N+](=O)[O-])s1` (centres undefined), 30.1 µg/mL (≈ 93 µM).
As for `O=C(NCCN1CCOCC1)C(Sc1ccccc1)c1ccccc1` (centres undefined), the figure is more than 53.5 µg/mL; as for `CN(C(=O)COC(=O)c1ccc2c(c1)OCO2)C1CCCCC1`, more than 47.9 µg/mL; as for `O=C(NCCc1c[nH]c2ccccc12)C(=O)c1c[nH]c2ccccc12`, 4.2 µg/mL (≈ 12.7 µM).
As for `CC1CCN(C(=O)CN2C(=O)c3cccc4cccc(c34)C2=O)CC1`, the figure is 2.1 µg/mL (≈ 6.24 µM).
In turn, `O=C(O)c1ccccc1NCc1cccs1` gave a solubility (kinetic) of 23.8 µg/mL (≈ 102 µM).
As for `C/C(=N\OC(=O)c1ccccc1)c1c(C)nc2cc(C)ccn12`, the figure is 44.7 µg/mL (≈ 145 µM); as for `Clc1ccc(Cn2cnc3ccccc32)cc1`, 27 µg/mL (≈ 111 µM); as for `Cc1ccc(C(C)NC(=O)c2cccnc2)cc1` (centres undefined), 33.5 µg/mL (≈ 139 µM).
As for `Cc1cccc(C)c1NC(=O)C(C)N1CCCCC1` (centres undefined), the figure is 38.3 µg/mL (≈ 147 µM); as for `CCc1ccccc1NC(=O)c1ccc(-c2csc(C)n2)cc1`, 1 µg/mL (≈ 3.1 µM); as for `Cc1ccc(N(Cc2ccccc2)C(=O)c2ccc(F)cc2)cc1`, 9.1 µg/mL (≈ 28.5 µM).
As for `CC1CC1C(=O)OCC(=O)Nc1ccc(S(=O)(=O)N2CCOCC2)cc1` (centres undefined), the figure is more than 57.4 µg/mL.
`COc1cccc(C(=O)Nc2ccccc2OC(F)(F)F)c1` returned a kinetic solubility of 30.6 µg/mL (≈ 98.3 µM).
